Results taken from paper PMC5844530, “Fosmetpantotenate (RE-024), a phosphopantothenate replacement therapy for pantothenate kinase-associated neurodegeneration: Mechanism of action and efficacy in nonclinical models” (PLoS ONE, 2018).
“And” between values parts separate entries of the source, which are not always exact repeats. Equal values may be shown once.

Experiments:
[1] = Pharmacokinetics in whole blood, cynomolgus monkeys
Method: The whole blood samples (0.5 mL) were collected into syringes that were prefilled with 2.5 mL of ice-cold 0.1% formic acid in acetonitrile. The volume ratio of the whole blood to 0.1% formic acid in acetonitrile was 1/5 (v/v). Samples were frozen (-70°C) until analyzed by LC-MS/MS.
Standard curves and quality control (QC) samples were prepared fresh on the day of analysis by serial dilution of the standard mixture in quenched whole blood (1 part of blood to 5 parts of 0.1% formic acid in acetonitrile) and centrifuged. […] The frozen study samples were thawed in an ice/water bath and centrifuged. Supernatant (50 μL) from standards, QC samples, and study samples was transferred to a 96-well plate and dried completely under nitrogen. The dried residues were reconstituted with 100 μL of 0.1% formic acid in water containing internal standard (5 ng/mL of ^15N/^13C3-RE-024-02) and analyzed by LC-MS/MS.
LC-MS/MS analysis for blood pharmacokinetic samples: Samples were analyzed using an Agilent 1100 binary pump (Agilent Technologies, Santa Clara, CA, USA), connected to an AB Sciex API 6500 mass spectrometer (SCIEX, Framingham, MA, USA). An electrospray ionization source was used, scanning in the positive mode. […] The chromatography column was a Varian Metasil AQ 120–5 C18 column, 5 μm, 50 x 2.00 mm (Part No. A0530050X020) at ambient temperature, with a 0.5 mL/min flow rate and a 20 μL injection volume. Mobile phase (A) consisted of 0.1% formic acid in water; while mobile phase (B) consisted of 0.1% formic acid in acetonitrile:water (9:1, v/v).
Quantitation of in vivo samples: Peak areas were integrated using Analyst software (AB Sciex, Concord, Ontario, Canada). […] Calibration standards (at a minimum 7 per curve) were fit by linear regression with (1/x^2) weighting. QC samples were used (triplicate) at 3 concentrations for all tandem mass spectrometry (MS/MS) runs.
Pharmacokinetic calculations: PK analysis was performed using Phoenix WinNonlin®, Build 6.3.0.395 (Certara, Princeton, NJ, USA) using a non-compartmental model (PO dose = model 200 for extravascular dosing). […] Post-dose concentrations below the limit of quantitation (BLQ) were omitted from calculation.

[2] = Pharmacokinetics in whole blood, CD-1 mice; details: for % Parent AUCAll: CD1 mouse, metabolite AUCall/Parent AUCall x 100; for Compound 1 Whole Blood Conc.: CD-1 mice, individual animals

COC(=O)CCNC(=O)[C@@H]1OP(=O)(N[C@@H](C)C(=O)OC)OCC1(C)C (some centres unmarked) [Compound 1]
% Parent AUCAll ([1]; Cynomolgus monkey, 300 mg/kg PO, metabolite AUCall/Parent AUCall x 100): 19% | concentration at 0.083 h ([1]; cynomolgus monkey, in vivo, po, 300 mg/kg, Concentration of compound 1 in whole blood, cynomolgus monkeys, single oral 300 mg/kg fosmetpantotenate, 0.083 hr, sum of diastereomers, LLOQ 1.58 nM): 17.2 nM | concentration at 0.5 h ([1]; cynomolgus monkey, in vivo, po, 300 mg/kg, Concentration of compound 1 in whole blood, cynomolgus monkeys, single oral 300 mg/kg fosmetpantotenate, 0.5 hr, sum of diastereomers, LLOQ 1.58 nM): 2480 nM | concentration at 4 h ([1]; cynomolgus monkey, in vivo, po, 300 mg/kg, Concentration of compound 1 in whole blood, cynomolgus monkeys, single oral 300 mg/kg fosmetpantotenate, 4 hr, sum of diastereomers, LLOQ 1.58 nM): 54.6 nM | concentration at 8 h ([1]; cynomolgus monkey, in vivo, po, 300 mg/kg, Concentration of compound 1 in whole blood, cynomolgus monkeys, single oral 300 mg/kg fosmetpantotenate, 8 hr, sum of diastereomers, LLOQ 1.58 nM): 7.89 nM | Concentration of compound 1 in whole blood ([1]; cynomolgus monkeys, single oral 300 mg/kg fosmetpantotenate, 0.083 hr, sum of diastereomers, LLOQ 1.58 nM, 300 mg/kg): 11.28 nM | Concentration of compound 1 in whole blood ([1]; cynomolgus monkeys, single oral 300 mg/kg fosmetpantotenate, 0.5 hr, sum of diastereomers, LLOQ 1.58 nM, 300 mg/kg): 3160.36 nM | Concentration of compound 1 in whole blood ([1]; cynomolgus monkeys, single oral 300 mg/kg fosmetpantotenate, 4 hr, sum of diastereomers, LLOQ 1.58 nM, 300 mg/kg): 96.23 nM | Concentration of compound 1 in whole blood ([1]; cynomolgus monkeys, single oral 300 mg/kg fosmetpantotenate, 8 hr, sum of diastereomers, LLOQ 1.58 nM, 300 mg/kg): 4.57 nM | % Parent AUCAll ([2]; 100 mg/kg PO): 129% | % Parent AUCAll ([2]; 300 mg/kg PO): 307% | % Parent AUCAll ([2]; 700 mg/kg PO): 257% | Compound 1 Whole Blood Conc. ([2]; 100 mg/kg RE-024-02 by PO, 0.033 hr, LLOQ 0.6 ng/mL, 100 mg/kg): 4.6 ng/mL and 4 ng/mL and 74.4 ng/mL and 3.2 ng/mL | Compound 1 Whole Blood Conc. ([2]; 100 mg/kg RE-024-02 by PO, 0.033 hr, LLOQ 1.6 nM, 100 mg/kg): 12.2 nM and 10.6 nM and 195.6 nM and 8.4 nM | Compound 1 Whole Blood Conc. ([2]; 100 mg/kg RE-024-02 by PO, 0.083 hr, LLOQ 0.6 ng/mL, 100 mg/kg): BQL and 1 ng/mL | Compound 1 Whole Blood Conc. ([2]; 100 mg/kg RE-024-02 by PO, 0.083 hr, LLOQ 1.6 nM, 100 mg/kg): BQL and 2.7 nM | Compound 1 Whole Blood Conc. ([2]; 100 mg/kg RE-024-02 by PO, 0.167 hr, LLOQ 0.6 ng/mL, 100 mg/kg): 4.3 ng/mL and BQL and 10.8 ng/mL | Compound 1 Whole Blood Conc. ([2]; 100 mg/kg RE-024-02 by PO, 0.167 hr, LLOQ 1.6 nM, 100 mg/kg): 11.4 nM and BQL and 28.4 nM | Compound 1 Whole Blood Conc. ([2]; 100 mg/kg RE-024-02 by PO, 0.333 hr, LLOQ 0.6 ng/mL, 100 mg/kg): BQL | Compound 1 Whole Blood Conc. ([2]; 100 mg/kg RE-024-02 by PO, 0.333 hr, LLOQ 1.6 nM, 100 mg/kg): BQL | Compound 1 Whole Blood Conc. ([2]; 100 mg/kg RE-024-02 by PO, 0.5 hr, LLOQ 0.6 ng/mL): BQL | Compound 1 Whole Blood Conc. ([2]; 100 mg/kg RE-024-02 by PO, 0.5 hr, LLOQ 1.6 nM): BQL | Compound 1 Whole Blood Conc. ([2]; 100 mg/kg RE-024-02 by PO, 1 hr, LLOQ 0.6 ng/mL): BQL | Compound 1 Whole Blood Conc. ([2]; 100 mg/kg RE-024-02 by PO, 1 hr, LLOQ 1.6 nM): BQL | Compound 1 Whole Blood Conc. ([2]; 100 mg/kg RE-024-02 by PO, 2 hr, LLOQ 0.6 ng/mL): BQL | Compound 1 Whole Blood Conc. ([2]; 100 mg/kg RE-024-02 by PO, 2 hr, LLOQ 1.6 nM): BQL | Compound 1 Whole Blood Conc. ([2]; 100 mg/kg RE-024-02 by PO, 4 hr, LLOQ 0.6 ng/mL): BQL | Compound 1 Whole Blood Conc. ([2]; 100 mg/kg RE-024-02 by PO, 4 hr, LLOQ 1.6 nM): BQL | Compound 1 Whole Blood Conc. ([2]; 100 mg/kg RE-024-02 by PO, 8 hr, LLOQ 0.6 ng/mL): BQL | Compound 1 Whole Blood Conc. ([2]; 100 mg/kg RE-024-02 by PO, 8 hr, LLOQ 1.6 nM): BQL | Compound 1 Whole Blood Conc. ([2]; 300 mg/kg RE-024-02 by PO, 0.033 hr, LLOQ 0.6 ng/mL, 300 mg/kg): 8.7 ng/mL and 70.8 ng/mL and 52.7 ng/mL and 7.2 ng/mL | Compound 1 Whole Blood Conc. ([2]; 300 mg/kg RE-024-02 by PO, 0.033 hr, LLOQ 1.6 nM, 300 mg/kg): 22.9 nM and 186.2 nM and 138.7 nM and 18.9 nM | Compound 1 Whole Blood Conc. ([2]; 300 mg/kg RE-024-02 by PO, 0.083 hr, LLOQ 0.6 ng/mL, 300 mg/kg): 1.6 ng/mL and BQL and 16.9 ng/mL | Compound 1 Whole Blood Conc. ([2]; 300 mg/kg RE-024-02 by PO, 0.083 hr, LLOQ 1.6 nM, 300 mg/kg): 4.2 nM and BQL and 44.3 nM | Compound 1 Whole Blood Conc. ([2]; 300 mg/kg RE-024-02 by PO, 0.167 hr, LLOQ 0.6 ng/mL, 300 mg/kg): 21.9 ng/mL and 24.1 ng/mL and 53.3 ng/mL and 17.7 ng/mL | Compound 1 Whole Blood Conc. ([2]; 300 mg/kg RE-024-02 by PO, 0.167 hr, LLOQ 1.6 nM, 300 mg/kg): 57.6 nM and 63.3 nM and 140.1 nM and 46.5 nM | Compound 1 Whole Blood Conc. ([2]; 300 mg/kg RE-024-02 by PO, 0.333 hr, LLOQ 0.6 ng/mL, 300 mg/kg): 2.4 ng/mL and 4.3 ng/mL and 3.8 ng/mL and 1.5 ng/mL | Compound 1 Whole Blood Conc. ([2]; 300 mg/kg RE-024-02 by PO, 0.333 hr, LLOQ 1.6 nM, 300 mg/kg): 6.2 nM and 11.3 nM and 10 nM and 3.9 nM | Compound 1 Whole Blood Conc. ([2]; 300 mg/kg RE-024-02 by PO, 0.5 hr, LLOQ 0.6 ng/mL, 300 mg/kg): 4.4 ng/mL and 4.5 ng/mL and 2.8 ng/mL | Compound 1 Whole Blood Conc. ([2]; 300 mg/kg RE-024-02 by PO, 0.5 hr, LLOQ 1.6 nM, 300 mg/kg): 11.5 nM and 11.9 nM and 7.4 nM | Compound 1 Whole Blood Conc. ([2]; 300 mg/kg RE-024-02 by PO, 1 hr, LLOQ 0.6 ng/mL, 300 mg/kg): BQL | Compound 1 Whole Blood Conc. ([2]; 300 mg/kg RE-024-02 by PO, 1 hr, LLOQ 1.6 nM, 300 mg/kg): BQL | Compound 1 Whole Blood Conc. ([2]; 300 mg/kg RE-024-02 by PO, 2 hr, LLOQ 0.6 ng/mL): BQL | Compound 1 Whole Blood Conc. ([2]; 300 mg/kg RE-024-02 by PO, 2 hr, LLOQ 1.6 nM): BQL | Compound 1 Whole Blood Conc. ([2]; 300 mg/kg RE-024-02 by PO, 4 hr, LLOQ 0.6 ng/mL): BQL | Compound 1 Whole Blood Conc. ([2]; 300 mg/kg RE-024-02 by PO, 4 hr, LLOQ 1.6 nM): BQL | Compound 1 Whole Blood Conc. ([2]; 300 mg/kg RE-024-02 by PO, 8 hr, LLOQ 0.6 ng/mL): BQL | Compound 1 Whole Blood Conc. ([2]; 300 mg/kg RE-024-02 by PO, 8 hr, LLOQ 1.6 nM): BQL | Compound 1 Whole Blood Conc. ([2]; 700 mg/kg RE-024-02 by PO, 0.033 hr, LLOQ 0.6 ng/mL, 700 mg/kg): 22.6 ng/mL and 66.6 ng/mL and 198 ng/mL and 119.4 ng/mL | Compound 1 Whole Blood Conc. ([2]; 700 mg/kg RE-024-02 by PO, 0.033 hr, LLOQ 1.6 nM, 700 mg/kg): 59.3 nM and 175.1 nM and 520.6 nM and 313.9 nM | Compound 1 Whole Blood Conc. ([2]; 700 mg/kg RE-024-02 by PO, 0.083 hr, LLOQ 0.6 ng/mL, 700 mg/kg): 165 ng/mL and 2.2 ng/mL and 624 ng/mL and 75 ng/mL | Compound 1 Whole Blood Conc. ([2]; 700 mg/kg RE-024-02 by PO, 0.083 hr, LLOQ 1.6 nM, 700 mg/kg): 433.8 nM and 5.9 nM and 1640.7 nM and 197.2 nM | Compound 1 Whole Blood Conc. ([2]; 700 mg/kg RE-024-02 by PO, 0.167 hr, LLOQ 0.6 ng/mL, 700 mg/kg): 636 ng/mL and 235.8 ng/mL and 165 ng/mL and 720 ng/mL
